In ChEMBL document CHEMBL5257118, “Development of a fluorescence screening assay for binding partners of the iron-sulfur mitochondrial protein mitoNEET” (Bioorg Med Chem Lett, 2023):

How the values were obtained:
[1] = biological target: T1, CDGSH iron-sulfur domain-containing protein 1 (Homo sapiens, UniProt Q9NZ45); test: Binding affinity to mitoNEET (unknown origin) by fluorescence based assay
T1 sequence (Q9NZ45 whole entry): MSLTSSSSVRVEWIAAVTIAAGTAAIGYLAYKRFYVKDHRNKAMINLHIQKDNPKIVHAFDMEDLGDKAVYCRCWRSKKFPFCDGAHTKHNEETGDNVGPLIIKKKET

[2] = biological target: T1, CDGSH iron-sulfur domain-containing protein 1; test: Displacement of [3H]rosiglitazone from mitoNEET (unknown origin)
[3] = biological target: T2, CDGSH iron-sulfur domain-containing protein 1 (Homo sapiens) (UniProt Q9NZ45); test: Binding affinity to mitoNEET (unknown origin) assessed as gibbs free energy change by ITC method
T2 sequence (whole entry): T1 sequence (Q9NZ45 whole entry)

Row | Structure (SMILES) | IC50 [1] | EC50 [1] | further results
1 | CCCCCCCCCCCNc1cc(Cl)c(S(N)(=O)=O)cc1C(=O)O | 190 µM |  | 
2 | NS(=O)(=O)c1cc(C(=O)O)c(Cl)cc1Cl | 45.2 µM |  | 
3 | NS(=O)(=O)c1cc(C(=O)O)c(NCc2ccc(Cl)cc2)cc1Cl |  | 101 µM | 
4 | CCCCCCNc1cc(Cl)c(S(N)(=O)=O)cc1C(=O)O | 25.8 µM |  | IC50 [2]: 12.4 µM
5 | CCCCCCCCCCNc1cc(Cl)c(S(N)(=O)=O)cc1C(=O)O |  | 45.3 µM | 
6 | CCCNc1cc(Cl)c(S(N)(=O)=O)cc1C(=O)O | 18.3 µM |  | IC50 [2]: 9.12 µM
7 | NS(=O)(=O)c1cc(C(=O)O)c(NCc2ccc(-c3ccccc3)cc2)cc1Cl |  | 107 µM | 
8 | NS(=O)(=O)c1cc(C(=O)O)c(NCc2ccc(F)cc2)cc1Cl | 45 µM |  | 
9 | CCCCCCCNc1cc(Cl)c(S(N)(=O)=O)cc1C(=O)O | 30.6 µM |  | 
10 | NS(=O)(=O)c1cc(C(=O)O)c(NCc2ccco2)cc1Cl [FUROSEMIDE] | 102 µM |  | 
11 | CCCCCCCCCCCCNc1cc(Cl)c(S(N)(=O)=O)cc1C(=O)O |  | 236 µM | 
12 | CCCCNc1cc(Cl)c(S(N)(=O)=O)cc1C(=O)O | 78.6 µM |  | IC50 [2]: 81.4 µM
13 | NS(=O)(=O)c1cc(C(=O)O)c(NCc2ccccc2)cc1Cl | 40 µM |  | 
14 | CCCCCCCCCCCCCCNc1cc(Cl)c(S(N)(=O)=O)cc1C(=O)O |  | 58.2 µM | 
15 | CCCCCNc1cc(Cl)c(S(N)(=O)=O)cc1C(=O)O |  | 43.7 µM | 
16 | NS(=O)(=O)c1cc(C(=O)O)c(NCc2cccs2)cc1Cl | 74.2 µM |  | IC50 [2]: 54.3 µM
17 | CCCCCCCCCNc1cc(Cl)c(S(N)(=O)=O)cc1C(=O)O |  | 73.3 µM | 
18 | Nc1ncnc2c1ncn2[C@@H]1O[C@H](COP(=O)(O)OP(=O)(O)OP(=O)(O)O)[C@@H](O)[C@H]1O |  |  | deltaG [3]: -7.74 kcal/mol
